Source: patent publication US9475817B2 (BRISTOL-MYERS SQUIBB COMPANY, priority 2012, dated 2016)

How the values were obtained:
CK1δ = CK1δ (Homo sapiens (Human), UniProt P48730); test: CK1δ kinase assay (Caliper LabChip, fluoresceinated peptide substrate); assay type: biochemical; settings: 200 pM CK1δ, 50 μM ATP, 1.5 μM peptide substrate, 22 hours room temperature
Method: (§1) CK1ε and CK1δ Kinase Assays
(§2) The kinase assay was performed in V-bottom 384-well plates. […] The reaction was incubated at room temperature for 22 hours and terminated by adding 45 μl of 35 mM EDTA to each sample. […] Compounds were dissolved at 10 mM in dimethylsulfoxide (DMSO) and evaluated at eleven concentrations. IC50 values were derived by non-linear regression analysis.

CK1ε = CK1ε (Homo sapiens (Human), UniProt P49674); test: CK1ε kinase assay (Caliper LabChip, fluoresceinated peptide substrate); assay type: biochemical; settings: 200 pM CK1ε, 50 μM ATP, 1.5 μM peptide substrate, 22 hours room temperature
Sequence of CK1ε (P49674 whole entry): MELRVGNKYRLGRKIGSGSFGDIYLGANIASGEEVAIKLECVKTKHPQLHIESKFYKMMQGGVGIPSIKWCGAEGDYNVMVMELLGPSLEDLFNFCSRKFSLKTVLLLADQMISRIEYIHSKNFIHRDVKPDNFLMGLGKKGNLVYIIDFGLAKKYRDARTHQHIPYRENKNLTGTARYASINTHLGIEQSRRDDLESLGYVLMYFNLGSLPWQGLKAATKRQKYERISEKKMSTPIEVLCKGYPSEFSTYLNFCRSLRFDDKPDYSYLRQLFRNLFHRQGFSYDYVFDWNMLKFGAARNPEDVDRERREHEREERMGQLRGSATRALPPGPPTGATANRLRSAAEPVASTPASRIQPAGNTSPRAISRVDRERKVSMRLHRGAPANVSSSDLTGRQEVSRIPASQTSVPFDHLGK
Method: as §1, §2

Sequence of CK1δ (P48730 whole entry): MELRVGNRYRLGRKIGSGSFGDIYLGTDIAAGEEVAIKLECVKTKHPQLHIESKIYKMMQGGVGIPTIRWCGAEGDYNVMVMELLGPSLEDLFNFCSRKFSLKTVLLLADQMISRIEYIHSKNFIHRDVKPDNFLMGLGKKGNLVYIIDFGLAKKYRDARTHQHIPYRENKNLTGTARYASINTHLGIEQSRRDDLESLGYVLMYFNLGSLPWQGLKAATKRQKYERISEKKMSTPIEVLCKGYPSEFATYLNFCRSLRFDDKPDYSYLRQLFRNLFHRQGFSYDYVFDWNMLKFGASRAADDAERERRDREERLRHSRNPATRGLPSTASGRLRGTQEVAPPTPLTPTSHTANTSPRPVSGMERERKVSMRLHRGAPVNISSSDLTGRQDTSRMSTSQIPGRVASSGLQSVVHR

SMILES | IC50 (CK1δ) [nM] | IC50 (CK1ε) [nM]
Cn1nc(-c2ccc(F)cc2)c(-c2ccc3nc(NC(=O)c4cccc(-c5cccnc5)c4)cn3n2)c1C1CCOCC1 [Compound 199, N-(6-(3-(4-Fluorophenyl)-1-methyl-5-(tetrahydro-2H-pyran-4-yl)-1H-pyrazol-4-yl)imidazo[1,2-b]pyridazin-2-yl)-3-(pyridin-3-yl)benzamide] | 0.2 | 1.9
Cc1nc(-c2ccncc2)sc1C(=O)Nc1cn2nc(-c3c(-c4ccc(F)cc4)nn(C)c3C3CCOCC3)ccc2n1 [Compound 200, N-(6-(3-(4-Fluorophenyl)-1-methyl-5-(tetrahydro-2H-pyran-4-yl)-1H-pyrazol-4-yl)imidazo[1,2-b]pyridazin-2-yl)-4-methyl-2-(pyridin-4-yl)thiazole-5-carboxamide] | 0.3 | 3
Cc1nc(-c2cccnc2)sc1C(=O)Nc1cn2nc(-c3c(-c4ccc(F)cc4)nn(C)c3C3CCOCC3)ccc2n1 [Compound 201, N-(6-(3-(4-Fluorophenyl)-1-methyl-5-(tetrahydro-2H-pyran-4-yl)-1H-pyrazol-4-yl)imidazo[1,2-b]pyridazin-2-yl)-4-methyl-2-(pyridin-3-yl)thiazole-5-carboxamide] | 0.3 | 2.3
Cn1nc(-c2ccc(F)cc2)c(-c2ccc3nc(NC(=O)c4ccnc(N5CCOCC5)c4)cn3n2)c1-c1ccncc1 [Compound 203, N-(6-(3-(4-Fluorophenyl)-1-methyl-5-(pyridin-4-yl)-1H-pyrazol-4-yl)imidazo[1,2-b]pyridazin-2-yl)-2-morpholinoisonicotinamide] | 0.9 | 7.9

Second part, the compound after the results:

IC50 (CK1δ) [nM] | IC50 (CK1ε) [nM] | SMILES
0.5 | 8.1 | Cn1nc(-c2ccc(F)cc2)c(-c2ccc3nc(NC(=O)c4ccnc(F)c4)cn3n2)c1-c1ccncc1 [Compound 202, 2-Fluoro-N-(6-(3-(4-fluorophenyl)-1-methyl-5-(pyridin-4-yl)-1H-pyrazol-4-yl)imidazo[1,2-b]pyridazin-2-yl)isonicotinamide]
0.4 | 3.2 | Cn1nc(-c2ccc(F)cc2)c(-c2ccc3nc(NC(=O)c4ccncc4)cn3n2)c1-c1ccncc1 [Compound 204, N-(6-(3-(4-Fluorophenyl)-1-methyl-5-(pyridin-4-yl)-1H-pyrazol-4-yl)imidazo[1,2-b]pyridazin-2-yl)isonicotinamide]
0.9 | 9.8 | Cn1nc(-c2ccc(F)cc2)c(-c2ccc3nc(NC(=O)c4cccc(-c5cccnc5)c4)cn3n2)c1-c1ccncc1 [Compound 205, N-(6-(3-(4-Fluorophenyl)-1-methyl-5-(pyridin-4-yl)-1H-pyrazol-4-yl)imidazo[1,2-b]pyridazin-2-yl)-3-(pyridin-3-yl)benzamide]
